Results from publication PMC5955599, “The HTLV-1 gp21 fusion peptide inhibits antigen specific T-cell activation in-vitro and in mice” (PLoS Pathogens, 2018).
Entries after “also recorded” stand apart in the source; their conditions may differ.

How the values were obtained:
[1] = tested on: MOG35-55–antigen specific T-cells; assay: In-vitro T-cell proliferative response (H3-thymidine incorporation); assay type: cell-based, mouse (C57Bl/6J); details: peptide at 10μM; for inhibition of T-cell proliferation, activation by PMA and Ionomycin: 50ng/mL PMA with 1μM ionomycin; for inhibition of T-cell proliferation, activation by antibodies against CD3 and CD28: CD3 and CD28 antibodies 2μg/ml; for inhibition of T-cell proliferation, activation by MOG35-55 presenting APCs: irradiated MOG35-55 presenting APCs, mean inhibition of proliferation
[2] = tested on: MOG35-55–antigen specific T-cells; assay: T-bet and Gata3 expression detected by FACS; assay type: cell-based, mouse (C57Bl/6J); details: peptide at 10μM, APC activation, n = 3
Description: (A-B) MOG35-55–antigen specific T-cells were activated by irradiated MOG35-55 presenting APCs, in the presence of the HTLV FP at 10μM. Total RNA was isolated 24 hours following activation and mRNA expression levels were determined by qRT-PCR. The values of each gene were normalized to Rpl13a as a housekeeping control. The HTLV FP reduces TBX21 (T-bet) mRNA expression and elevates GATA3 mRNA expression. The data is presented as arbitrary units. n≥3. (C-H) MOG35-55–antigen specific T-cells were activated by irradiated MOG35-55 presenting APCs, in the presence of either HTLV or HIV FP at 10μM. Samples were fixed in 4% PFA and stained with anti T-bet-APC and anti Gata3-FITC antibodies (C-D) 24, (E-F) 48 and (G-H) 72 hours following activation. Each time point is represented as cell count vs. APC or FITC fluorescence histogram. Analysis was performed using LSR-II flow cytometer (BD) and FlowJo cell analysis software (FlowJo, LLC). The HTLV FP reduces T-bet expression and elevates Gata3 expression. n = 3. One-way ANOVA was used for statistical analysis. ns, not significant; *P<0.05;** P<0.01.
Antigen-specific T-cells were plated onto round 12-well plates (10^6 cells/ well) and activated with 5x10^5 irradiated (25 gray) APC and 5μg/ml of MOG p35-55 in the presence or absence of relevant peptides. Cells were washed with PBS, blocked (5% Donkey serum, 2% BSA and 0.1% Triton in PBS) and fixed with 4% Paraformaldehyde (PFA) 24 hour following activation. Cells were then stained with Gata3-FITC and T-bet-APC fluorochrome-labeled monoclonal mouse antibodies (purchased from Miltenyi Biotec) according to Miltenyi Biotec protocols. Samples were then collected using LSR-II flow cytometer and analyzed with FlowJo cell analysis software.

[3] = Circular dichroism spectroscopy with CDNN secondary structure analysis; assay type: physicochemical; details: 25μM peptide in 5mM HEPES buffer with 1% LPC; for Antiparallel β-Sheet / Parallel β-Sheet / Random-coil / α-Helix / β-turn: CD 190–260 nm, CDNN, relative amount of structure out of 100%; for secondary structure in a membrane mimetic environment: CD
Description: Fig 6 Detection of the immune modulatory region within the HTLV FP. (A) Sequences of shorter peptides derived from the full length HTLV FP. (B) MOG35-55–antigen specific T-cells were activated by APCs in the presence of HTLV FP derived peptides at 10μM and proliferative responses were assessed as described above. […] The data is presented as mean inhibition of proliferation. n = 12. (C) MOG35-55–antigen specific T cells were activated by either (i) irradiated MOG35-55 presenting APCs (black), (ii) antibodies against CD3 and CD28 (white), or (iii) PMA and Ionomycin (gray) in the presence of HTLV FP5-13 and HIV FP5-13 at 10μM. Proliferative responses were assessed as described above. The HTLV FP inhibits T-cell proliferation induced either through the TCR or downstream from the TCR with equal potencies. The data is presented as mean inhibition of proliferation. n = 12. […] CD spectra were measured at 25μM in 5mM HEPES buffer containing 1% lyso-phosphatidylcholine (LPC). […] (E) MOG35-55–antigen specific T-cells were activated by APCs in the presence of HTLV FP5-13 D/L enantiomers at 10μM and proliferative responses were assessed as described above. Both HTLV FP5-13 enantiomers inhibit T-cells proliferation with equal potencies. The data is presented as mean inhibition of proliferation. n = 12. One-way ANOVA was used for statistical analysis. *P<0.05;**P<0.01;***P<0.001.

Sequence | inhibition of T-cell proliferation, activation by PMA and Ionomycin ([1]; n = 12) | inhibition of T-cell proliferation, activation by antibodies against CD3 and CD28 ([1]; n = 12) | inhibition of T-cell proliferation, activation by MOG35-55 presenting APCs ([1]; n = 12) | Antiparallel β-Sheet [3] [%] | Parallel β-Sheet [3] [%] | Random-coil [3] [%] | α-Helix [3] [%] | β-turn [3] [%] | secondary structure in a membrane mimetic environment [3] | other results
AVGIGALFLGFLGAAGSTMGARSMTLTVQARQL [HIV FP, HIV-1 gp41 fusion peptide, HXB2 isolate, reference compound] | decreased significantly when activation was downstream of TCRα and β | decreased significantly when activation was downstream of TCRα and β | inhibits T-cell proliferation with the same potency as the HIV FP | – | – | – | – | – | – | Gata3 expression (protein), 24 hours ([2]; 24 hours following activation): had no effect on Gata3 expression; T-bet expression (protein), 24 hours ([2]; 24 hours following activation): had no effect on T-bet expression; Gata3 expression (protein), 48 hours ([2]; 48 hours following activation): had no effect on Gata3 expression; T-bet expression (protein), 48 hours ([2]; 48 hours following activation): had no effect on T-bet expression; Gata3 expression (protein), 72 hours ([2]; 72 hours following activation): had no effect on Gata3 expression
AVGMVIFLLVLAIMAMTASVTAAATLVKQHATA [JDV FP, Jembrana disease virus fusion peptide, Tabanan/87 isolate] | – | – | showed no inhibitory activity | – | – | – | – | – | – | –
AVWLVSALA [HTLV FP5-13, segment 5-13 of the HTLV FP] | inhibited all three levels of activation | inhibited all three levels of activation | – | 6.7 | 5.2 | 17.3 | 54 | 16.8 | exhibited an α-helical structure | inhibition of T-cell proliferation, activation by MOG35-55 presenting APCs ([1]; n = 12, 10 µM): inhibited all three levels of activation; also recorded: inhibit T-cell proliferation with higher potency than HTLV FP9-22 and HTLV FP14-22; also recorded: inhibited T-cell proliferation with the same potency
GALFLGFLG [HIV FP5-13, reference compound] | significantly diminished when T-cells were activated using CD3 and CD28 antibodies or PMA and Ionomycin | significantly diminished when T-cells were activated using CD3 and CD28 antibodies or PMA and Ionomycin | – | – | – | – | – | – | – | –
MGAGVAGGI [HTLV FP14-22, segment 14-22 of the HTLV FP] | – | – | higher potency than HTLV FP9-22 and HTLV FP14-22 | 27.7 | 11.7 | 32.5 | 11.2 | 17.1 | found to be random coils | –
VAALTLGLALSVGLTGINVAVSALSHQRLTSLI [BLV FP, bovine leukemia virus fusion peptide, Japanese isolate of BLV-1] | – | – | significantly stronger than the BLV FP | – | – | – | – | – | – | –
VSALAMGAGVAGGI [HTLV FP9-22, segment 9-22 of the HTLV FP] | – | – | higher potency than HTLV FP9-22 and HTLV FP14-22 | 30.4 | 11.7 | 32.6 | 8.5 | 16.8 | found to be random coils | –
